# Values quoted from earlier work in patent publication US10039772B2, “Methods and compositions for treating alcohol use disorders” (priority 2015, dated 2018).
# Like-named read-outs stand apart in the source and are kept apart here.
# System: 11β-HSD1, 11β-HSD2
# Details: cited from earlier work
# [1] = 11β-HSD isozyme specificity per cited reference
Structure (SMILES),Specificity [1],Specificity
Cc1c(Cl)cccc1S(=O)(=O)Nc1nc(CC(=O)N2CCN(C)CC2)cs1 [Number 5],11β- HSD1 > 2,
CCN(CC)C(=O)Cc1csc(NS(=O)(=O)c2cccc(Cl)c2C)n1 [Number 6],11β- HSD1 > 2,
"Cc1c(Cl)cccc1S(=O)(=O)Nc1nc(CCN2CCOCC2=O)cs1 [Number 7, 3-chloro-2-methyl-N-{4-[2-(3-oxo-4-morpholinyl)ethyl]-1,3-thiazol-2-yl}benzenesulfonamide]",11β- HSD1 > 2,
COc1cc(C(=O)N2CCC(n3c(=O)[nH]c4ccccc43)CC2)ccc1C [Number 8],11β- HSD1 > 2,
CCC1(CC)OC(N[C@@H](C)c2ccccc2C(F)(F)F)=NC1=O [Number 9],11β- HSD1 > 2,
C[C@H](NC1=NC(=O)[C@@](C)(C(C)(C)O)S1)c1ccc(F)cc1 [Number 10],11β- HSD1 > 2,
C[C@H](NC1=NC(=O)[C@@](C)(C(F)(F)F)S1)c1ccccc1F [Number 11],11β- HSD1 > 2,
CC(C)[C@]1(C)SC(N[C@H]2C[C@@H]3CC[C@H]2C3)=NC1=O [Number 13],,11β- HSD1 > 2
CC(C)[C@]1(C)SC(N[C@H]2C[C@H]3C[C@@H]2C[C@@H]3O)=NC1=O [Number 14],,11β- HSD1 > 2
CCN(C(=O)c1ccc([C@@](C)(O)C(F)(F)F)cc1)C1CCCCC1 [Number 16],11β- HSD1 > 2,
C[C@](O)(c1ccc(C(=O)N(C2CC2)C2CCN(CC3(C(N)=O)CC3)CC2)cc1)C(F)(F)F [Number 18],,11β- HSD1 > 2
C[C@](O)(c1ccc(C(=O)N(C2CC2)C2CCC(CCC(N)=O)(c3ccccc3)CC2)cc1)C(F)(F)F (stereo partly drawn) [Number 19],,11β- HSD1 > 2
CC(C)N(c1ccc([C@](C)(O)C(F)(F)F)cc1)S(=O)(=O)c1cc(Cl)ccc1Cl [Number 20],11β- HSD1 > 2,
Cn1c(-c2ccccc2)nnc1C12CC3CC(CC(C3)C1)C2 [Number 23],11β- HSD1 > 2,
COc1c(-c2nnc(-c3ccccc3C(F)(F)F)n2C)ccc2ccc(Cl)cc12 [Number 24],11β- HSD1 > 2,
F[C@H]1C[C@](c2ccc(Cl)cc2)(c2nnc(C3CC3)n2C2CC2)C1 [Number 25],11β- HSD1 > 2,
Cn1c(-c2ccc(-c3cccc(S(C)(=O)=O)c3)cc2Cl)nnc1C1(c2ccc(Cl)cc2)CCC1 [Number 26],11β- HSD1 > 2,
Cn1c(-c2ccc(-c3cnccn3)cc2Cl)nnc1[C@]1(c2ccc(Cl)cc2)C[C@@H](F)C1 [Number 27],11β- HSD1 > 2,
CCCCCC12CCC(c3nnc(-c4ccccc4C(F)(F)F)n3C)(CC1)CC2 [Number 28],11β- HSD1 > 2,
CCS(=O)(=O)CCCC12CCC(c3nnc(-c4ccccc4C(F)(F)F)n3C)(CC1)CC2 [Number 29],11β- HSD1 > 2,
CC(C)(C)c1ccc(S(=O)(=O)N2C[C@H]3C[C@@H]2CN3C2CCCC2)cc1 [Number 30],11β- HSD1 > 2,
Cn1c(-c2ccccc2C(F)(F)F)nnc1C12CCC(c3nc(-c4ccc(C(O)C(F)(F)F)cc4)no3)(CC1)CC2 (stereo not drawn) [Number 31],11β- HSD1 > 2,
CO[C@@H]1C[C@H]2CC[C@@H](C1)N2S(=O)(=O)c1ccc(C(C)(C)C)cc1 [Number 32],,11β- HSD1 > 2
Cn1c(-c2ccccc2C(F)(F)F)nnc1C12CCC(c3nc(-c4ccc(F)cc4)no3)(CC1)CC2 [Number 33],11β- HSD1 > 2,
CCN(CC)C(=O)Cc1cccc(NS(=O)(=O)c2cccc(Cl)c2C)n1 [Number 34],11β- HSD1 > 2,

Structure (SMILES),Specificity [1],Specificity
Cc1cc(N)nc(NS(=O)(=O)c2ccc(-c3ccc(C#N)cc3)cc2)c1 [Number 36],11β- HSD1 > 2,
N#Cc1ccc(-c2ccc(S(=O)(=O)Nc3cccc(CO)n3)cc2)cc1 [Number 39],11β- HSD1 > 2,
O=C(CS(=O)(=O)c1ccccc1)c1ccc(C(F)(F)F)cc1 [Number 40],11β- HSD1 > 2,
O=S(=O)(c1ccc(Cl)c(Cl)c1)N1CCN(c2ncccc2C(F)(F)F)CC1 [Number 41],11β- HSD1 > 2,
C[C@@H]1CN(c2ncc(F)cc2C(F)(F)F)CCN1S(=O)(=O)c1cccc(-n2cncn2)c1 [Number 42],11β- HSD1 > 2,
C[C@@H]1CN(c2ccc(F)cc2C(F)(F)F)CCN1S(=O)(=O)c1cccc([C@@](C)(O)C(F)(F)F)c1 [Number 43],11β- HSD1 > 2,
C[C@@H]1CN(c2ccc(F)cc2C(F)(F)F)CCN1S(=O)(=O)c1ccc(C(N)=O)cc1Cl [Number 44],,11β- HSD1 > 2
C[C@@H]1CN(c2ccc(F)cc2C(F)(F)F)CCN1S(=O)(=O)c1ccc([C@@](O)(C(N)=O)C(F)(F)F)s1 [Number 45],11β- HSD1 > 2,
CCCSc1ncccc1C(=O)NC1CCCCC1 [Number 46],11β- HSD1 > 2,
CCCSc1nc(N2CCC[C@@H](CC(=O)O)C2)ccc1C(=O)NC1CCCCC1 [Number 47],,11β- HSD1 > 2
O=C(N[C@H]1C2CC3CC1C[C@@](O)(C3)C2)c1cnc(N2CCOCC2)nc1C1CC1 [Number 48],11β- HSD1 > 2,
O=C(N[C@H]1C2CC3CC1C[C@@](O)(C3)C2)c1cnc(N[C@H]2CCOC2)nc1C1CCCC1 [Number 49],11β- HSD1 > 2,
CSc1nc(N2C[C@@H]3[C@H](C2)[C@H]3C(=O)O)ccc1C(=O)NC1C2CC3CC(C2)CC1C3 (stereo partly drawn) [Number 50],11β- HSD1 > 2,
COc1ccc(N2C(=O)C(C)(C)C2c2ccccc2OC)cc1 (stereo not drawn) [Number 51],11β- HSD1 > 2,
CC(C)(C)c1c(C(=O)NC2C3CC4CC(C3)CC2C4)cnn1-c1ccc(C(=O)O)cc1 (stereo not drawn) [Number 52],11β- HSD1 > 2,
CC1(C)C(=O)N(c2cccc(S(C)(=O)=O)c2)C1c1cccc2nccnc12 (stereo not drawn) [Number 53],11β- HSD1 > 2,
Nc1c(Cl)cc(C(=O)N(C2CCCC2)C2CC2)cc1Cl [Number 54],11β- HSD1 > 2,
C[C@@H]1CC(n2c(=O)[nH]c3ccccc32)C[C@@H](C)N1C(=O)c1cc(Cl)c(N)c(Cl)c1 (stereo partly drawn) [Number 55],11β- HSD1 > 2,
O=C1C(Cc2ccccc2)CCN1C1CCCCC1 (stereo not drawn) [Number 56],11β- HSD1 > 2,
N#Cc1cccnc1N1CCN(CC(=O)NC2C3CC4CC(C3)CC2C4)CC1 (stereo not drawn) [Number 58],11β- HSD1 > 2,
O=C(CN1CCN(c2ccc(C(F)(F)F)cn2)CC1)NC1C2CC3CC1CC(O)(C3)C2 (stereo not drawn) [Number 59],11β- HSD1 > 2,
CC(C)(C(=O)NC1C2CC3CC1CC(C(N)=O)(C3)C2)N1CCN(c2ccc(C(F)(F)F)cn2)CC1 (stereo not drawn) [Number 60],11β- HSD1 > 2,
CC(C)(Cc1ccc(Cl)cc1)C(=O)NC12CCC(C(N)=O)(CC1)CC2 [Number 61],11β- HSD1 > 2,
CC(C)(Oc1ccc(-n2cccn2)cn1)C(=O)N[C@H]1C2CC3CC1C[C@@](C(N)=O)(C3)C2 [Number 63],11β- HSD1 > 2,
CC(C(=O)NC1C2CC3CC1CC(O)(C3)C2)N1CCN(c2ccc(C(F)(F)F)cn2)CC1 (stereo not drawn) [Number 66],,11β- HSD1 > 2

Structure (SMILES),Specificity [1],Specificity
CC1CCN(C(=O)c2ccc(CSc3ccc(Cl)cc3)cc2)CC1 [Number 67],,11β- HSD1 > 2
CC1CCN(C(=O)c2cccc(CSc3c(Cl)cccc3Cl)n2)CC1 [Number 68],11β- HSD1 > 2,
N#Cc1c(O)nc(SCc2ccccc2Cl)nc1-c1ccccc1 [Number 69],11β- HSD1 > 2,
N#Cc1ncccc1CSc1nc(O)c(C#N)c2c1COCC2 [Number 70],,11β- HSD1 > 2
Cc1ccc(-c2cccc(C(=O)N3CCCC(C)(C)C3)n2)cc1F [Number 71],11β- HSD1 > 2,
Cc1c(Cl)cccc1Oc1cccn2c(C34CCC(O)(CC3)CC4)nnc12 [Number 72],11β- HSD1 > 2,
O=C(O)CC1C2CC3CC(C2)CC1C3 (stereo not drawn) [Number 73],11β- HSD1 > 2,
O=C(O)CC1(c2ccc(F)cc2)C2CCCC1CCC2 (stereo not drawn) [Number 74],11β- HSD1 > 2,
O[C@]12CC[C@](c3nnc4c(Oc5ccccc5Cl)cccn43)(CC1)C2 [Number 75],11β- HSD1 > 2,
O=C(NC1C2CC3CC(C2)CC1C3)N1CCCCC1 (stereo not drawn) [Number 76],11β- HSD1 > 2,
O=C(O)C[C@H]1CC2(CCN(C(=O)NC3C4CC5CC(C4)CC3C5)CC2)c2c(Br)cccc21 (stereo partly drawn) [Number 77],11β- HSD1 > 2,
O=C(OC1C2CC3CC(C2)CC1C3)N1CCCCC1 (stereo not drawn) [Number 78],11β- HSD1 > 2,
N#Cc1cccnc1N[C@@H]1CCN(C(=O)O[C@H]2C3CC4CC2C[C@@](C(N)=O)(C4)C3)C1 [Number 79],11β- HSD1 > 2,
Cc1cccc(N2CCC(C)(c3ccccc3)OC2=O)c1 (stereo not drawn) [Number 80],,11β- HSD1 > 2
C[C@@H](c1ccc(-c2ccc(F)cc2F)cc1)N1CC[C@](CCO)(c2ccc(F)cc2)OC1=O [Number 81],,11β- HSD1 > 2
Cc1c(Cl)cccc1S(=O)(=O)NCc1ccc(C(=O)N2C[C@@H](C)O[C@@H](C)C2)cc1 [Number 82],11β- HSD1 > 2,
CCCN(C(=O)c1ccc(CNS(=O)(=O)c2cccc(Cl)c2)cc1)C1CCCCCC1 [Number 83],11β- HSD1 > 2,
CCN(CC)C(=O)C1CCCN(S(=O)(=O)c2cccc(Cl)c2C)C1 (stereo not drawn) [Number 84],11β- HSD1 > 2,
CN(C(=O)c1csc(CNS(=O)(=O)c2cccc(Cl)c2)n1)C1CCCCCC1 [Number 85],11β- HSD1 > 2,
CN(C(=O)N1CCC(CN2C(=O)Nc3ccc(Cl)cc3S2(=O)=O)CC1)C1CCCCCC1 [Number 86],11β- HSD1 > 2,
Cc1c(Cl)cccc1S(=O)(=O)N1CCC[C@@H](C(=O)N[C@H]2C[C@@H]3CC[C@@]2(C)C3(C)C)C1 [Number 87],11β- HSD1 > 2,
Cc1c(Cl)cccc1S(=O)(=O)N1CCCC[C@@H]1C(=O)N[C@H]1C2CC3CC1C[C@](O)(C3)C2 [Number 88],,11β- HSD1 > 2
Cc1c(Cl)cccc1S(=O)(=O)N1CCCC[C@@H]1C(=O)N[C@H]1C2CC3CC1C[C@](O)(C3)C2 [Number 89],,11β- HSD1 > 2
C[C@]1(C(=O)N[C@H]2C3CC4CC2C[C@@](O)(C4)C3)CCCN1S(=O)(=O)c1cccc2cccnc12 [Number 90],11β- HSD1 > 2,
O=C(CN1C(C(=O)c2ccccc2)=C(O)c2ccccc2S1(=O)=O)c1ccccc1 [Number 91],11β- HSD1 > 2,
